# Measurements as given in patent publication US20200323811A1, “INTRANASAL PHARMACEUTICAL COMPOSITION COMPRISING ANTICANCER DRUGCONTAINING NANOPARTICLES FOR TREATING BRAIN DISEASES” (INDUSTRY-UNIVERSITY COOPERATION FOUNDATION HANYANG …, priority 2016, published 2020).
# Experiments:
# C6 glioblastoma cells = experiment: Cell cycle (DNA content, PI) analysis; type: cell-based, rat; details: 10 μM PTX equivalent, 24 hours
# Description: (§1) The rat (C6) and human (U87MG) glioblastoma cells used in this experiment were obtained from ATCC (Rockville, Md.), and cultured in Dulbecco's Modified Eagle's Medium (DMEM) containing 10% fetal bovine serum, penicillin (100 IU/mL) and streptomycin (100 μg/mL) at 37° C. in a 5% CO2 incubator. For all in vitro experiments, the cells were seeded in a 12-well plate at a density of 1×10^5 cells/well.
# And then, the cells were collected, and fixed with 70% ethanol at 4° C. for 2 hours. After incubation, the cells were washed, and additionally incubated with a DNase-free RNase (1 mg/mL) and 0.02 mg/mL of propidium iodide (PI). A cell cycle profile was studied using a flow cytometer (BD FACS Calibur™), and analyzed using FlowJo software.
# rat glioma cells = experiment: Annexin V / 7-AAD apoptosis flow cytometry; type: cell-based; details: 24 hours
# Description: as §1
# C6-Luc glioblastoma = experiment: Intracranial C6-Luc orthotopic glioblastoma model, intranasal inoculation; type: in vivo, Sprague-Dawley rats
# Description: The therapeutic efficacy of intranasally-delivered PTX-loaded NPs was evaluated in an intracranial C6-Luc orthotropic model. […] Therefore, as a PTX solvent, DMSO was used. In addition, to minimize DMSO-associated cytotoxicity, the PTX-loaded NPs were dissolved in PBS. The intranasal inoculation started at day 4 after tumor administration and was performed daily for a total of three times.
# (§2) Specifically, intracranial tumor models were established from 6-week-old male Sprague-Dawley rats. The anesthetized rats were placed in a stereotaxic frame, and the skull was gently exposed to spot the bregma. The monitoring points for the bregma were as follows: anteroposterior, 0 mm; lateral, 2.0 mm; and ventral, 4.0 mm. A fine burr hole (0.7 mm) was created in the skull without disrupting the dura using a microsurgical drill. A total of 2×10^5/10 μl C6-Fluc cells were injected using a 26-gauge Hamilton microsyringe (80330; Reno, Nev., USA) at a speed of 0.9 μl/min. To generate a human glioblastoma model, 1×10^5/[…] of U87MG-Fluc cells were inoculated into immunodeficient nude mice by the same method. After the operation, the skin was sutured.
# In vivo and ex vivo bioluminescence imaging was performed. For in vivo bioluminescence imaging, 150 mg/kg of D-luciferin (Caliper, Hopkinton, Mass.) was intraperitoneally injected into anesthetized animals. The live images were taken 15 minutes after the injection of D-luciferin by the IVIS Lumina caliper series (Life Technologies, Carlsbad, Calif.). […]
# For Nissl staining, paraffin-embedded brain sections were deparaffinized, rehydrated, and then subjected to treatment with a 0.1% crystal violet solution according to a standard protocol. […] The cancer volume was calculated using ImageJ software as described above. […]
# To investigate apoptosis in the de-paraffinized and hydrated brain sections, the TUNEL assay was performed using an in situ apoptosis detection kit (Millipore) according to the manufacturer's instruction. […] Fluorescent signals of the cells were measured by taking images using a fluorescence microscope (Leica, Wetzlar, Germany). […]
# U87MG-Fluc glioblastoma = experiment: Human glioblastoma (U87MG-Fluc) model, intranasal inoculation; type: in vivo, immunodeficient nude mice; details: 1 mg/kg intranasal, three inoculations
# Description: as §2, with “A total of 2×10^5/10 μl C6-Fluc cells were injected using a 26-gauge Hamilton microsyringe (80330;” left out, “sutured. […] In vivo and ex vivo bioluminescence imaging was performed. For in vivo bioluminescence imaging, 150 mg/kg of D-luciferin (Caliper, Hopkinton, Mass.) was intraperitoneally injected into anesthetized animals. The live images were taken 15 minutes after the injection of D-luciferin by the IVIS Lumina caliper series (Life Technologies, Carlsbad, Calif.). To evaluate ex vivo bioluminescence, the excised brain tissue was incubated with a D-luciferin substrate for 15 minutes, followed by imaging as described above. […] The cancer volume was calculated using ImageJ software as described above.” for “sutured.”
# C6-glioma cells = experiment: TUNEL assay and Hoechst staining in cultured cells; type: cell-based, rat
# Description: as §1
# C-6 glioma cells = experiment: Viability/apoptosis (calcein-AM / EthD-1) analysis; type: cell-based, rat; details: 24 hours
# Description: as §1
# An image was captured using a fluorescence microscope (Leica, Wetzlar, Germany). A percentage of live or dead cells was calculated using ImageJ software, developed by the National Institute of Health (NIH).
# [1] = In vivo toxicity by body weight of inoculated animals; design: species or system rat; details: glioblastoma rats, 2 mg/kg intranasal
# Description: Further, the in vivo toxicity of NPs was evaluated by measuring a body weight of the inoculated animal. The change in body weight is reliable indicator for assessing the in vivo toxicity of a delivered drug. […] However, an insignificant change in body weight was shown in all animals due to cancer mass over time after tumor implantation (FIG. 8).
# U87MG glioma cells = experiment: Cell cycle (DNA content, PI) analysis; type: cell-based, human; details: 24 hours
# Description: as §1
smiles,measurement,setting,value
"CC(=O)O[C@H]1C(=O)[C@@]2(C)[C@H]([C@H](OC(=O)c3ccccc3)[C@]3(O)C[C@H](OC(=O)[C@H](O)[C@@H](NC(=O)c4ccccc4)c4ccccc4)C(C)=C1C3(C)C)[C@]1(OC(C)=O)CO[C@@H]1C[C@@H]2O [PTX, Paclitaxel]",cells at the G1 phase,C6 glioblastoma cells,9%
same,cells at the G2-M phase,C6 glioblastoma cells; non-treated 29%,83%
same,annexin V-positive cells,rat glioma cells; 1 μM,30.1%
same,annexin V-positive cells,rat glioma cells; 10 μM,33.1%
same,annexin V-positive cells,rat glioma cells; 50 μM,34.2%
same,number of annexin V and 7-AAD-positive cells,rat glioma cells; various concentrations,concentration-dependently increased
same,tumor volume (Nissl staining),"C6-Luc glioblastoma; 2 mg/kg PTX equivalent intranasal, PBS 98.4",90.1 mm^3
same,tumor progression (in vivo bioluminescence imaging),"C6-Luc glioblastoma; 2 mg/kg PTX intranasal, three daily inoculations from day 4, up to day 14",relatively identical to the saline-treated group
same,increase in in vivo bioluminescence signals,"C6-Luc glioblastoma; day 14, 2 mg/kg intranasal",1.0×10^8 fold
same,tumor growth / therapeutic effect compared with saline (BLI),U87MG-Fluc glioblastoma,did not show any therapeutic effect
same,nuclear morphology (Hoechst staining),C6-glioma cells; compared with non-treated glioma cells,severe formation of DNA fragmentation or segmentation or condensed nuclei
same,number of apoptotic cells stained with TUNEL,C6-glioma cells; equivalent amounts of PTX,concentration-dependently increased
same,number of TUNEL-positive cells,C6-glioma cells; fifth tested micromolar concentration (50 μM),~236.1
same,number of TUNEL-positive cells,C6-glioma cells; first tested micromolar concentration (0.01 μM),approximately 77
same,number of TUNEL-positive cells,C6-glioma cells; fourth tested micromolar concentration (10 μM),~198.6
same,number of TUNEL-positive cells,C6-glioma cells; second tested micromolar concentration (0.1 μM),~97.5
same,number of TUNEL-positive cells,C6-glioma cells; third tested micromolar concentration (1 μM),~136.6
same,dead cells,C-6 glioma cells; 0.01 μM,8.3%
same,dead cells,C-6 glioma cells; 0.1 μM,23.1%
same,dead cells,C-6 glioma cells; 1 μM,31.8%
same,dead cells,C-6 glioma cells; 10 μM,49.2%
same,dead cells,C-6 glioma cells; 50 μM,63.8%
same,change in body weight,[1],significant effect on body weight loss
same,arrested population at the G2-M phase compared with C6 cells,U87MG glioma cells,slightly higher arrested population at the G2-M phase
